Biological target: T1, human vanilloid receptor VR-1 (hVR1) (Homo sapiens, UniProt Q8NER1)
T1 construct: expressed in transfected cells; host or cells: HEK293 Tet-on cells (hVR1-HEK293), expression induced with doxycycline
Assay: Calcium influx test of vanilloid receptor (capsaicin-induced, Fluo-3/AM, hVR1-HEK293 cells)
Format: cell-based
Settings: for inhibition at 0.2 µM: single concentration of compound 200 nM, 1 μM capsaicin, read-out: Inhibitory effect (%) on calcium influx; for IC50: calcium influx induced by 1 μM capsaicin, read-out: Inhibitory effect IC50 (nM) on calcium influx
Protocol: In order to measure an activity of the biaryl benzoimidazole derivative of the invention as an antagonist, a calcium influx test was performed.
An hVR1-HEK293 cell line is a cell line, in which a Human Embryonic Kidney (HEK) 293 Tet-on cell is transformed with a human vanilloid-1 gene (pTRE2hyg-hVR1, 7.8 kb). The cell line can regulate a VR-1 expression, depending on the administration of a tetracycline analogue, doxycycline. At two days before the calcium influx test, the cell line was cultured in media containing doxycycline to induce the VR-1 expression, and then used. First, the hVR1-HEK293 cells were cultured in T75 flasks to have a density of about 80%, and then detached from the bottom of the flasks by using trypsin. The detached cells were centrifuged and collected. Then, the cells were suspended in media containing 1 μg/mL doxycycline, and diluted to have a concentration of 2×10^5 to 4×10^5 cells/mL. 100 μL of the suspended cells were added to each well of 96-well black plate, cultured at 37° C. and 5% CO2 cell incubator for two days, and then used in the calcium influx test.
The compound was dissolved in dimethyl sulfoxide (DMSO), and then used for the calcium influx test.
In order to measure the calcium influx […], the cells were cultured in a solution containing Fluo-3/AM, which is a calcium indicator, at 37° C. for 90 minutes, so as to be permeated by a fluorescent dye. […] 193 μL D-PBS were added to each well, and then the compound was added thereto in various concentrations. To measure an activity as an antagonist, the cells were treated with 1 μM capsaicin to stimulate the calcium influx. The inhibitory effect of the compound when calcium influx was induced by 1 μM capsaicin was measured depending on its concentration using a fluorescence spectrometer, and the obtained data were substituted into a hill equation to analyze the values.
The inhibitory effect on calcium influx was measured with a single concentration of the compounds of the invention (200 nM), and the result thereof are shown in Table 2.

T1 sequence (Q8NER1 whole entry): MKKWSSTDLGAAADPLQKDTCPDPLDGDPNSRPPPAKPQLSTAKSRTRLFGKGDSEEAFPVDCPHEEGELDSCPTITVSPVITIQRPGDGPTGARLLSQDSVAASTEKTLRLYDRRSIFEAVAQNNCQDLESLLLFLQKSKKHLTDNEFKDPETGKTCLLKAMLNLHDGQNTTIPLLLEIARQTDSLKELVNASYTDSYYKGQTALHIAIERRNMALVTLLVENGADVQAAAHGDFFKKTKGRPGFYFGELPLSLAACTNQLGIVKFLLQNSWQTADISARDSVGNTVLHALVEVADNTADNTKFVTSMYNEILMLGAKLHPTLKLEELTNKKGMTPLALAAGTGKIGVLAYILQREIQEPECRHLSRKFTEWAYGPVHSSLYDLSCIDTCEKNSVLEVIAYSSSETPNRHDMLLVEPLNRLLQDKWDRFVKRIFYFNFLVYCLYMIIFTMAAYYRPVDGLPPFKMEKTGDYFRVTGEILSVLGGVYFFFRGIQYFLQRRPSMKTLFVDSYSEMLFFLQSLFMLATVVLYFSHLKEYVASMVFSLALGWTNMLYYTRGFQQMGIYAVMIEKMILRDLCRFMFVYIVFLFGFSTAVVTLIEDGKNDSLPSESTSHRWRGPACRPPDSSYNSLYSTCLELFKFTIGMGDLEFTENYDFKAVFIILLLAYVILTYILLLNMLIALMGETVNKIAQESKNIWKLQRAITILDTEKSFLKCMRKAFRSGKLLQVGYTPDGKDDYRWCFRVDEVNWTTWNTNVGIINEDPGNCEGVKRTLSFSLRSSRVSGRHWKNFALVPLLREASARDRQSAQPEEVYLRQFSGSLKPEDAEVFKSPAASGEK

| Compound | inhibition at 0.2 µM [%] | IC50 [nM] |
| --- | --- | --- |
| CCNC(=O)c1cnc(-c2ccc(-c3nc4c(Br)cc(C(F)(F)F)cc4[nH]3)cc2)c(Cl)c1 [Compound 65, 6-[4-(4-bromo-6-trifluoromethyl-1H-benzoimidazol-2-yl)-phenyl]-5-chloro-N-ethyl-nicotinamide] | 30.9 | – |
| C=Cc1cnc(-c2ccc(-c3nc4ccc(C(F)(F)F)cc4[nH]3)nc2)c(Cl)c1 [Compound 66, 3-chloro-6′-(6-trifluoromethyl-1H-benzoimidazol-2-yl)-5-vinyl-[2,3′]bipyridinyl] | 0.2 | – |
| C=Cc1cnc(-c2ccc(-c3nc4ccc(C(C)(C)C)cc4[nH]3)nc2)c(Cl)c1 [Compound 67, 6′-(6-tert-butyl-1H-benzoimidazol-2-yl)-3-chloro-5-vinyl-[2,3′]bipyridinyl] | -8.8 | – |
| C=Cc1cnc(-c2ccc(-c3nc4ccc(Br)cc4[nH]3)nc2)c(Cl)c1 [Compound 68, 6′-(6-bromo-1H-benzoimidazol-2-yl)-3-chloro-5-vinyl-[2,3′]bipyridinyl] | -2.2 | – |
| C=Cc1cnc(-c2ccc(-c3nc4ccc(Cl)cc4[nH]3)nc2)c(Cl)c1 [Compound 69, 3-chloro-6′-(6-chloro-1H-benzoimidazol-2-yl)-5-vinyl-[2,3′]bipyridinyl] | 11.3 | – |
| C=Cc1cnc(-c2ccc(-c3nc4c(Br)cc(C(F)(F)F)cc4[nH]3)nc2)c(Cl)c1 [Compound 70, 6′-(4-bromo-6-trifluoromethyl-1H-benzoimidazol-2-yl)-3-chloro-5-vinyl-[2,3′]bipyridinyl] | 0 | – |
| COC(=O)c1cnc(-c2ccc(-c3nc4ccc(N5CCOCC5)cc4[nH]3)nc2)c(Cl)c1 [Compound 71, 3-chloro-6′-(6-morpholin-4-yl-1H-benzoimidazol-2-yl)-[2,3′]bipyridinyl-5-carboxylic acid methyl ester] | 7.1 | – |
| COC(=O)c1cnc(-c2ccc(-c3nc4ccc(C(C)(C)C)cc4[nH]3)nc2)c(Cl)c1 [Compound 74, 6′-(6-tert-butyl-1H-benzoimidazol-2-yl)-3-chloro-[2,3′]bipyridinyl-5-carboxylic acid methyl ester] | 81.3 | 26.2 |
| COC(=O)c1cnc(-c2ccc(-c3nc4ccc(Br)cc4[nH]3)nc2)c(Cl)c1 [Compound 75, 6′-(6-bromo-1H-benzoimidazol-2-yl)-3-chloro-[2,3′]bipyridinyl-5-carboxylic acid methyl ester] | 45.3 | – |
| COC(=O)c1cnc(-c2ccc(-c3nc4ncc(Br)cc4[nH]3)nc2)c(Cl)c1 [Compound 76, 6′-(6-bromo-1H-imidazo[4,5-b]pyridin-2-yl)-3-chloro-[2,3′]bipyridinyl-5-carboxylic acid methyl ester] | 7 | – |
| COC(=O)c1cnc(-c2ccc(-c3nc4c(Br)cc(C(F)(F)F)cc4[nH]3)nc2)c(Cl)c1 [Compound 77, 6′-(4-bromo-6-trifluoromethyl-1H-benzoimidazol-2-yl)-3-chloro-[2,3′]bipyridinyl-5-carboxylic acid methyl ester] | 48.9 | – |
| COC(=O)c1cnc(-c2ccc(-c3nc4c(Br)cc(Br)cc4[nH]3)nc2)c(Cl)c1 [Compound 78, 3-chloro-6′-(4,6-dibromo-1H-benzoimidazol-2-yl)-[2,3′]bipyridinyl-5-carboxylic acid methyl ester] | 4.1 | – |
| O=C(O)c1cnc(-c2ccc(-c3nc4ccc(N5CCOCC5)cc4[nH]3)nc2)c(Cl)c1 [Compound 79, 3-chloro-6′-(6-morpholin-4-yl-1H-benzoimidazol-2-yl)-[2,3′]bipyridinyl-5-carboxylic acid] | 3.3 | – |
| CN1CCN(c2ccc3nc(-c4ccc(-c5ncc(C(=O)O)cc5Cl)cn4)[nH]c3c2)CC1 [Compound 80, 3-chloro-6′-[6-(4-methyl-piperazin-1-yl)-1H-benzoimidazol-2-yl]-[2,3′]bipyridinyl-5-carboxylic acid] | -5 | – |
| O=C(O)c1cnc(-c2ccc(-c3nc4ccc(C(F)(F)F)cc4[nH]3)nc2)c(Cl)c1 [Compound 81, 3-chloro-6′-(6-trifluoromethyl-1H-benzoimidazol-2-yl)-[2,3′]bipyridinyl-5-carboxylic acid] | 9.6 | – |
| CC(C)(C)c1ccc2nc(-c3ccc(-c4ncc(C(=O)O)cc4Cl)cn3)[nH]c2c1 [Compound 82, 6′-(6-tert-butyl-1H-benzoimidazol-2-yl)-3-chloro-[2,3′]bipyridinyl-5-carboxylic acid] | 6.7 | – |

| Compound | inhibition at 0.2 µM [%] | IC50 [nM] |
| --- | --- | --- |
| O=C(O)c1cnc(-c2ccc(-c3nc4ccc(Br)cc4[nH]3)nc2)c(Cl)c1 [Compound 83, 6′-(6-bromo-1H-benzoimidazol-2-yl)-3-chloro-[2,3′]bipyridinyl-5-carboxylic acid] | 22.8 | – |
| O=C(O)c1cnc(-c2ccc(-c3nc4ncc(Br)cc4[nH]3)nc2)c(Cl)c1 [Compound 84, 6′-(6-bromo-1H-imidazo[4,5-b]pyridin-2-yl)-3-chloro-[2,3′]bipyridinyl-5-carboxylic acid] | 6.3 | – |
| O=C(O)c1cnc(-c2ccc(-c3nc4c(Br)cc(C(F)(F)F)cc4[nH]3)nc2)c(Cl)c1 [Compound 85, 6′-(4-bromo-6-trifluoromethyl-1H-benzoimidazol-2-yl)-3-chloro-[2,3′]bipyridinyl-5-carboxylic acid] | 4.2 | – |
| OCc1cnc(-c2ccc(-c3nc4ccc(N5CCOCC5)cc4[nH]3)nc2)c(Cl)c1 [Compound 87, [3-chloro-6′-(6-morpholin-4-yl-1H-benzoimidazol-2-yl)-[2,3′]bipyridinyl-5-yl]-methanol] | 3.7 | – |
| CN1CCN(c2ccc3nc(-c4ccc(-c5ncc(CO)cc5Cl)cn4)[nH]c3c2)CC1 [Compound 88, {3-chloro-6′-[6-(4-methyl-piperazin-1-yl)-1H-benzoimidazol-2-yl]-[2,3′]bipyridinyl-5-yl}-methanol] | 15.3 | – |
| OCc1cnc(-c2ccc(-c3nc4ccc(C(F)(F)F)cc4[nH]3)nc2)c(Cl)c1 [Compound 89, [3-chloro-6′-(6-trifluoromethyl-1H-benzoimidazol-2-yl)-[2,3′]bipyridinyl-5-yl]-methanol] | 30 | 338 |
| CC(C)(C)c1ccc2nc(-c3ccc(-c4ncc(CO)cc4Cl)cn3)[nH]c2c1 [Compound 90, [6′-(6-tert-butyl-1H-benzoimidazol-2-yl)-3-chloro-[2,3′]bipyridinyl-5-yl]-methanol] | 42.7 | 158 |
| OCc1cnc(-c2ccc(-c3nc4ccc(Br)cc4[nH]3)nc2)c(Cl)c1 [Compound 91, [6′-(6-bromo-1H-benzoimidazol-2-yl)-3-chloro-[2,3′]bipyridinyl-5-yl]-methanol] | 27.6 | 517 |
| OCc1cnc(-c2ccc(-c3nc4ncc(Br)cc4[nH]3)nc2)c(Cl)c1 [Compound 92, [6′-(6-bromo-1H-imidazo[4,5-b]pyridin-2-yl)-3-chloro-[2,3′]bipyridinyl-5-yl]-methanol] | 7.3 | – |
| OCc1cnc(-c2ccc(-c3nc4c(Br)cc(C(F)(F)F)cc4[nH]3)nc2)c(Cl)c1 [Compound 93, [6′-(4-bromo-6-trifluoromethyl-1H-benzoimidazol-2-yl)-3-chloro-[2,3′]bipyridinyl-5-yl]-methanol] | 41 | 129 |
| OCc1cnc(-c2ccc(-c3nc4c(Br)cc(Br)cc4[nH]3)nc2)c(Cl)c1 [Compound 94, [3-chloro-6′-(4,6-dibromo-1H-benzoimidazol-2-yl)-[2,3′]bipyridinyl-5-yl]-methanol] | 9.8 | – |
| CCNC(=O)c1cnc(-c2ccc(-c3nc4ccc(N5CCOCC5)cc4[nH]3)nc2)c(Cl)c1 [Compound 95, 3-chloro-6′-(6-morpholin-4-yl-1H-benzoimidazol-2-yl)-[2,3′]bipyridinyl-5-carboxylic acid ethyl amide] | -0.6 | – |
| CCNC(=O)c1cnc(-c2ccc(-c3nc4ccc(C(F)(F)F)cc4[nH]3)nc2)c(Cl)c1 [Compound 97, 3-chloro-6′-(6-trifluoromethyl-1H-benzoimidazol-2-yl)-[2,3′]bipyridinyl-5-carboxylic acid ethyl amide] | 13.3 | – |
| CCNC(=O)c1cnc(-c2ccc(-c3nc4ccc(C(C)(C)C)cc4[nH]3)nc2)c(Cl)c1 [Compound 98, 6′-(6-tert-butyl-1H-benzoimidazol-2-yl)-3-chloro-[2,3′]bipyridinyl-5-carboxylic acid ethyl amide] | 13.2 | – |
| CCNC(=O)c1cnc(-c2ccc(-c3nc4ccc(Br)cc4[nH]3)nc2)c(Cl)c1 [Compound 99, 6′-(6-bromo-1H-benzoimidazol-2-yl)-3-chloro-[2,3′]bipyridinyl-5-carboxylic acid ethyl amide] | 17.5 | – |
